Assay results published in patent US20240408033A1, “CELL-DERIVED NANOVESICLES FOR IN VIVO TRANSPORT AND DELIVERY OF THERAPEUTIC MATERIALS” (The Board of Trustees of the Leland Stanford Junior …, priority 2021, published 2024).

Test system: GL-26 GBM cells
Assay: PI staining-based apoptosis FACS analysis, GL-26 cells
Settings: TMZ at 250 μM, alone or with mpEVs (50 pmol)
Text: We evaluated the therapeutic potential of miRNA-loaded mpEVs (50 pmol) in GL-26 cells in combination with TMZ and quantified the chemosensitizing effects of the miRNA-loaded mpEVs using PI staining-based FACS analysis (FIG. 13).
To investigate the chemosensitizing effect of miRNAs-loaded mpEVs in the absence and presence of TMZ at different concentrations, we seeded the U87 glioma cells at a density of 1×10^5 cells per well in 12-well plates. Next, we treated the cells with mpEVs from control and CXCR4-NSCs with and without loaded miRNAs. On the following day, we treated the cells with TMZ at different concentrations (0 μM, 250 μM, and 500 μM) for each kind of EV. At 24 h after TMZ administration, we collected the cells and fixed in ice cold 70% ethanol at −20° C. for 30 min. We then washed the fixed cells once with 2 ml of PBS and stained with PI (15 nM) in the presence of RNase A (10 mg/ml) and 0.01% Triton-X100 (Life Technologies, Grand Island, NY, USA). […] Likewise, the chemosensitizing effect of miRNA loaded mpEVs for TMZ therapy was also investigated against GL26 cells by using a similar procedure.

Question: `Cn1nnc2c(C(N)=O)ncn2c1=O` [TMZ, temozolomide] was tested. Which apoptotic cells did it give?
Answer: Its apoptotic cells is 13.9%.
